Results: patent US8148391B2 (Cephalon, Inc., priority 2006, dated 2012)
Read-outs that look alike come from different tables or passages of the source. Blank lines part the entries; values can stand above or below the compound they belong to.

Key:
[1] = biological target: T1, c-Met (cytoplasmic domain) (Homo sapiens, UniProt P08581); test: c-Met Kinase Assay (same methods as for ALK, with modifications); format: biochemical
T1 construct: 10 ng/mL c-Met (cytoplasmic domain, Invitrogen Corporation #PV3143); purchased Invitrogen Corporation PV3143
Outline: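 Europium-labeled PT66 antibody (Eu-N1) detects substrate phosphorylation on wells coated with phospholipase C-γ at 10 μg/mL. The kinase, the cytoplasmic domain of c-Met at 10 ng/mL, starts the reaction, which proceeds 15 minutes at 37° C.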

[2] = biological target: T2, baculovirus-expressed ALK (Homo sapiens, UniProt Q9UM73); test: ALK Kinase Assay (ELISA-type, time-resolved fluorescence); format: biochemical
T2 construct: host or cells: baculovirus expression system
Outline: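 Plates coated with phospholipase C-γ substrate (10 μg/mL in TBS); reaction started with 30 ng/ml ALK and run 15 min at 37° C. Phosphorylated substrate detected with Eu-N1-labeled PT66 antibody. IC50 from sigmoidal variable-slope fit of percent inhibition vs log concentration.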

[3] = c-Met kinase inhibition, 1 μM ATP (Km level), read-out: cMet Activity
[4] = ALK kinase inhibition, 1 μM ATP (Km level), read-out: ALK Activity
[5] = 1 μM ATP (Km level), read-out: cMet Activity (c-Met Kinase Inhibition, IC50)
[6] = 1 μM ATP (Km level), read-out: ALK Activity (ALK Kinase Inhibition, IC50)
[7] = c-Met kinase inhibition, 1 μM ATP, read-out: cMet Activity
[8] = ALK kinase inhibition, 1 μM ATP, read-out: ALK Activity
[9] = 1 μM ATP (Km level), 10 ng/mL c-Met, read-out: cMet Activity (c-Met kinase inhibition, IC50 class)
[10] = 1 μM ATP (Km level), 30 ng/ml ALK, 37° C., 15 minutes, read-out: ALK Activity (ALK kinase inhibition, IC50 class)

T1 sequence (P08581 956-1390 limits assumed): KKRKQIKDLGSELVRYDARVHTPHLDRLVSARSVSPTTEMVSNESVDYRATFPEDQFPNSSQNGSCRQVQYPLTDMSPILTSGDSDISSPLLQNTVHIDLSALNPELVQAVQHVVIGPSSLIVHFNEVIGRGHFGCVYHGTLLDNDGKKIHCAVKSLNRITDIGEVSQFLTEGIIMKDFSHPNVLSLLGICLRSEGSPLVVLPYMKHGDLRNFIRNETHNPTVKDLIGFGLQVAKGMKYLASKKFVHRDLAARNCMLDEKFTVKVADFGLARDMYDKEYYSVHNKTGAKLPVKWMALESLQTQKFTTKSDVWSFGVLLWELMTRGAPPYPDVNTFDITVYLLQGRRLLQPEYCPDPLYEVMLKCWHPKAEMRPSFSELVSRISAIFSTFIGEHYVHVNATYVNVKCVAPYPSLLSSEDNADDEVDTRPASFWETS
T2 sequence (Q9UM73 19-1620): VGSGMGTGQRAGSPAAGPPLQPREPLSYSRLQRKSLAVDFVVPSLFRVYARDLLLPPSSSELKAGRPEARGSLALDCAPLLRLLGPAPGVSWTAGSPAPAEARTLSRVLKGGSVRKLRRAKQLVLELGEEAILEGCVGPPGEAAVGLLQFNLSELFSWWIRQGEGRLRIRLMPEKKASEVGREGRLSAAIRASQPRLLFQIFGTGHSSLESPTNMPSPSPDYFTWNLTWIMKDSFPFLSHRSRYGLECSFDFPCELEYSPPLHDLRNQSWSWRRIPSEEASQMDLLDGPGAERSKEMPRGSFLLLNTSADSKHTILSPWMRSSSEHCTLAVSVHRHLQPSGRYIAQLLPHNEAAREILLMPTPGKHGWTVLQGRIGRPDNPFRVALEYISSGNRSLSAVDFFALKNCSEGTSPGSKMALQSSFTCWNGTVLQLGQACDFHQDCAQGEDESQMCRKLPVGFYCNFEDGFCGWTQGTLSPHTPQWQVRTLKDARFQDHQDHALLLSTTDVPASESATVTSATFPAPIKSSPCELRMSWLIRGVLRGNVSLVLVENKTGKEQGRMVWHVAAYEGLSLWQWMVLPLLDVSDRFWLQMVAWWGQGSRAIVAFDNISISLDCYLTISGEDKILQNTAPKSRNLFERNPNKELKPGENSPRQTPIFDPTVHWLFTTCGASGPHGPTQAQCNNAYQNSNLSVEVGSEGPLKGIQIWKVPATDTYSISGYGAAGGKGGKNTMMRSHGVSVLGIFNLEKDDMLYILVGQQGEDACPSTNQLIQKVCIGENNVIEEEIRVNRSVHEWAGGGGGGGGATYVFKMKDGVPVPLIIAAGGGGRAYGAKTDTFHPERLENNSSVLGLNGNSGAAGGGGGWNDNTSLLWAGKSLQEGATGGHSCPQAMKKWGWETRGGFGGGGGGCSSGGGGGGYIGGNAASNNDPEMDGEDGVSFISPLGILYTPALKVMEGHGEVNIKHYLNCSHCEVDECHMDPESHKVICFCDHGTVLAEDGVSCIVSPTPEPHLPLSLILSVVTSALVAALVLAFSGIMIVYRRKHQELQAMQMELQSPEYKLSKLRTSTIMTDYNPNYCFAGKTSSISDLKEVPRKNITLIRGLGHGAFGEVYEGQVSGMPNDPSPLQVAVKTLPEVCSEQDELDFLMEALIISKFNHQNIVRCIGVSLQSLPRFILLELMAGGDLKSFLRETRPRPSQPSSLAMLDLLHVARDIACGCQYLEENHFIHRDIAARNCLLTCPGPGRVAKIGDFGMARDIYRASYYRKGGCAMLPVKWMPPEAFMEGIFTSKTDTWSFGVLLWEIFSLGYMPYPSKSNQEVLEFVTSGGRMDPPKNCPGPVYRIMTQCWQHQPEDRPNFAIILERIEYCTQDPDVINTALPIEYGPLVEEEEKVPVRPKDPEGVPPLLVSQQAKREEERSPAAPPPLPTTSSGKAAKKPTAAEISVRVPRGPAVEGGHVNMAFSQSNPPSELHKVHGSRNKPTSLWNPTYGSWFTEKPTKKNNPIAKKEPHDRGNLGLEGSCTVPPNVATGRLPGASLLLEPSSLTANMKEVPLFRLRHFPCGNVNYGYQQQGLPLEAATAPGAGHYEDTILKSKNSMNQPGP

Compound: CCN1CCc2ccc(Nc3ncc(Cl)c(N[C@@H]4CCCC[C@H]4NC(=O)C(F)(F)F)n3)cc2CC1 [Example 446, N-{(1R,2R)-2-[5-Chloro-2-(3-ethyl-2,3,4,5-tetrahydro-1H-benzo[d]azepin-7-ylamino)-pyrimidin-4-ylamino]-cyclohexyl}-2,2,2-trifluoro-acetamide]
IC50 [1, 3]: 100 to 1000 nM | IC50 [2, 4]: < 100 nM

Compound: COc1cc2c(cc1Nc1ncc(Cl)c(Nc3ccc(N4CCC(C(=O)O)CC4)cc3-n3cccn3)n1)CCN(CC(=O)N(C)C)CC2 [Example 630, 1-{4-[5-Chloro-2-(3-dimethylcarbamoylmethyl-8-methoxy-2,3,4,5-tetrahydro-1H-benzo[d]azepin-7-ylamino)-pyrimidin-4-ylamino]-3-pyrazol-1-yl-phenyl}-piperidine-4-carboxylic acid]
IC50 [1, 5]: > 10000 nM | IC50 [2, 6]: < 100 nM

Compound: NC(=O)[C@@H]1CCCC[C@H]1Nc1nc(Nc2ccc3c(c2)CCC(NCC(F)(F)F)CC3)ncc1Cl (stereo partly drawn) [Example 653]
IC50 [1, 5]: 100 to 1000 nM | IC50 [2, 6]: < 100 nM

Compound: CNC(=O)c1cccc(F)c1Nc1nc(Nc2ccc3c(c2)C(=O)NCCC3)ncc1Cl [Example 400, 2-[5-Chloro-2-(1-oxo-2,3,4,5-tetrahydro-1H-benzo[c]azepin-8-ylamino)-pyrimidin-4-ylamino]-3-fluoro-N-methyl-benzamide]
IC50 [1, 3]: 100 to 1000 nM | IC50 [2, 4]: 100 to 1000 nM

Compound: COc1cc2c(cc1Nc1ncc(Cl)c(Nc3ccccc3S(C)(=O)=O)n1)CCN(CC(N)=O)CC2 [Example 1143, 2-{7-[5-Chloro-4-(2-methanesulfonyl-phenylamino)-pyrimidin-2-ylamino]-8-methoxy-1,2,4,5-tetrahydro-benzo[d]azepin-3-yl}-acetamide]
IC50 [1, 9]: > 10000 nM | IC50 [2, 10]: < 100 nM

Compound: COc1cc2c(cc1Nc1ncc(Cl)c(N[C@H]3[C@@H](C(N)=O)[C@@H]4C=C[C@H]3C4)n1)CCC(NCCO)CC2 (single isomer, unassigned) [Example 1096]
IC50 [1, 9]: > 10000 nM | IC50 [2, 10]: < 100 nM

Compound: COc1cc2c(cc1Nc1ncc(Cl)c(Nc3ccc(N4CCN(C)CC4)c(C)c3)n1)CCN(CC(C)(F)F)CC2 [Example 779, 5-Chloro-N*2*-[3-(2,2-difluoro-propyl)-8-methoxy-2,3,4,5-tetrahydro-1H-benzo[d]azepin-7-yl]-N*4*-[3-methyl-4-(4-methyl-piperazin-1-yl)-phenyl]-pyrimidine-2,4-diamine]
IC50 [1, 5]: > 10000 nM | IC50 [2, 6]: < 100 nM

Compound: COc1cc2c(cc1Nc1ncc(Cl)c(Nc3ccc(N4CCOCC4)cc3OC)n1)N(C)CCN(C[C@@H](O)C(F)(F)F)C2 [Example 496, (R)-3-{8-[5-Chloro-4-(2-methoxy-4-morpholin-4-yl-phenylamino)-pyrimidin-2-ylamino]-7-methoxy-1-methyl-1,2,3,5-tetrahydro-benzo[e][1,4]diazepin-4-yl}-1,1,1-trifluoro-propan-2-ol]
IC50 [1, 3]: > 10000 nM | IC50 [2, 4]: < 100 nM

Compound: COc1cc2c(cc1Nc1ncc(Cl)c(Nc3ccc(N4CCN(C)CC4)c(C)c3)n1)CCN(CC(F)F)CC2 [Example 765, 5-Chloro-N*2*-[3-(2,2-difluoro-ethyl)-8-methoxy-2,3,4,5-tetrahydro-1H-benzo[d]azepin-7-yl]-N*4*-[3-methyl-4-(4-methyl-piperazin-1-yl)-phenyl]-pyrimidine-2,4-diamine]
IC50 [1, 5]: > 10000 nM | IC50 [2, 6]: < 100 nM

Compound: COc1ccc(Nc2nc(Nc3cc4c(cc3OC)CCN(CC(=O)N(C)C)CC4)ncc2Cl)c(NS(C)(=O)=O)c1 [Example 821, 2-{7-[5-Chloro-4-(2-methanesulfonylamino-4-methoxy-phenylamino)-pyrimidin-2-ylamino]-8-methoxy-1,2,4,5-tetrahydro-benzo[d]azepin-3-yl}-N,N-dimethyl-acetamide]
IC50 [1, 5]: > 10000 nM | IC50 [2, 6]: < 100 nM

Compound: NC(=O)c1cccc(F)c1Nc1nc(Nc2ccc3c(c2)NC(=O)CCC3)ncc1Cl [Example 1256, 2-[5-Chloro-2-(2-oxo-2,3,4,5-tetrahydro-1H-1-benzazepin-8-ylamino)-pyrimidin-4-ylamino]-3-fluoro-benzamide]
IC50 [1, 9]: 1000 to 10000 nM | IC50 [2, 10]: 100 to 1000 nM

Compound: COc1cc2c(cc1Nc1ncc(Cl)c(Nc3ccccc3S(=O)(=O)C(C)C)n1)CCC(NCC(F)F)CC2 (stereo not drawn) [Example 1056, 5-Chloro-N*2*-[7-(2,2-difluoro-ethylamino)-3-methoxy-6,7,8,9-tetrahydro-5H-benzocyclohepten-2-yl]-N*4*-[2-(propane-2-sulfonyl)-phenyl]-pyrimidine-2,4-diamine]
IC50 [1, 9]: 1000 to 10000 nM | IC50 [2, 10]: < 100 nM

Compound: COc1c(Nc2ncc(Cl)c(N[C@H]3[C@@H](C(N)=O)[C@@H]4C=C[C@H]3C4)n2)ccc2c1CCCC(N1CCOCC1)C2 (single isomer, unassigned) [Example 941]
IC50 ([1]; read-out: cMet Activity (c-Met Kinase Inhibition, IC50), 1 μM ATP (Km level)): > 10000 nM | IC50 [2, 6]: < 100 nM

Compound: (1S,2S,3R,4R)-3-{5-Chloro-2-[7-(4-methyl-piperazin-1-yl)-6,7,8,9-tetrahydro-5H-benzocyclohepten-2-ylamino]-pyrimidin-4-ylamino}-bicyclo[2.2.1]hept-5-ene-2-carboxylic acid amide [Example 893]
IC50 [1, 5]: 100 to 1000 nM | IC50 [2, 6]: < 100 nM

Second part, the compound after the results:

IC50 [1, 7]: < 100 nM | IC50 [2, 8]: 100 to 1000 nM
Compound: C#CCNC(=O)c1cccc(F)c1Nc1nc(Nc2ccc3c(c2)N(C(C)=O)CCCC3(C)C)ncc1Cl [Example 1602, 2-[2-(1-Acetyl-5,5-dimethyl-2,3,4,5-tetrahydro-1H-benzo[b]azepin-8-ylamino)-5-chloro-pyrimidin-4-ylamino]-3-fluoro-N-prop-2-ynyl-benzamide]

IC50 [1, 7]: > 10000 nM | IC50 [2, 8]: < 100 nM
Compound: COc1cc2c(cc1Nc1ncc(Cl)c(Nc3ccccc3S(=O)(=O)N(C)C)n1)CCN(CC(=O)N1CCOCC1)CC2 [Example 1525, 2-{5-Chloro-2-[8-methoxy-3-(2-morpholin-4-yl-2-oxo-ethyl)-2,3,4,5-tetrahydro-1H-3-benzazepin-7-ylamino]-pyrimidin-4-ylamino}-N,N-dimethyl-benzenesulfonamide]

IC50 [1, 9]: < 100 nM | IC50 [2, 10]: < 100 nM
Compound: C#CCNC(=O)c1cccc(F)c1Nc1nc(Nc2ccc3c(c2)CCN(CCOC)CC3)ncc1Cl [Example 1403, 2-{5-Chloro-2-[3-(2-methoxy-ethyl)-2,3,4,5-tetrahydro-1H-benzo[d]azepin-7-ylamino]-pyrimidin-4-ylamino}-3-fluoro-N-prop-2-ynyl-benzamide]

IC50 [1, 7]: 1000 to 10000 nM | IC50 [2, 8]: 1000 to 10000 nM
Compound: CNC(=O)c1cc(F)ccc1Nc1nc(Nc2ccc3c(c2)CN(C)C(=O)CC3)ncc1Cl [Example 1809, 2-[5-Chloro-2-(2-methyl-3-oxo-2,3,4,5-tetrahydro-1H-benzo[c]azepin-8-ylamino)-pyrimidin-4-ylamino]-5-fluoro-N-methyl-benzamide]

IC50 [1, 7]: 100 to 1000 nM | IC50 [2, 8]: 100 to 1000 nM
Compound: CNC(=O)c1scc(C)c1Nc1nc(Nc2ccc3c(c2)C(C)(C)CCC(=O)N3)ncc1Cl [Example 1572, 3-[5-Chloro-2-(5,5-dimethyl-2-oxo-2,3,4,5-tetrahydro-1H-benzo[b]azepin-7-ylamino)-pyrimidin-4-ylamino]-4-methyl-thiophene-2-carboxylic acid methyl amide]

IC50 [1, 7]: 100 to 1000 nM | IC50 [2, 8]: 1000 to 10000 nM
Compound: CNC(=O)c1scc(C)c1Nc1nc(Nc2ccc3c(c2)NC(=O)CN(C(=O)C(F)(F)F)C3)ncc1Cl [Example 1866, 3-{5-Chloro-2-[2-oxo-4-(2,2,2-trifluoro-acetyl)-2,3,4,5-tetrahydro-1H-benzo[e][1,4]diazepin-8-ylamino]-pyrimidin-4-ylamino}-4-methyl-thiophene-2-carboxylic acid methylamide]

IC50 [1, 7]: 1000 to 10000 nM | IC50 [2, 8]: > 10000 nM
Compound: CNC(=O)c1noc(C)c1Nc1nc(Nc2ccc3c(c2)CCOC(=O)N3C)ncc1Cl [Example 1775, 4-[5-Chloro-2-(5-methyl-6-oxo-5,6,8,9-tetrahydro-7-oxa-5-aza-benzocyclohepten-2-ylamino)-pyrimidin-4-ylamino]-5-methyl-isoxazole-3-carboxylic acid methyl amide]

IC50 [1, 7]: < 100 nM | IC50 [2, 8]: < 100 nM
Compound: CN1Cc2cc(Nc3ncc(Cl)c(Nc4ccccc4OCC#N)n3)ccc2CCC1=O [Example 1810, {2-[5-Chloro-2-(2-methyl-3-oxo-2,3,4,5-tetrahydro-1H-benzo[c]azepin-8-ylamino)-pyrimidin-4-ylamino]-phenoxy}-acetonitrile]

IC50 [1, 7]: > 10000 nM | IC50 [2, 8]: < 100 nM
Compound: COc1cc2c(cc1Nc1ncc(Cl)c(N[C@H]3[C@@H](C(N)=O)[C@@H]4C=C[C@H]3C4)n1)CCN(CCO)CC2 [Example 1532, (1S,2S,3R,4R)-3-{5-Chloro-2-[3-(2-hydroxy-ethyl)-8-methoxy-2,3,4,5-tetrahydro-1H-3-benzazepin-7-ylamino]-pyrimidin-4-ylamino}-bicyclo[2.2.1]hept-5-ene-2-carboxylic acid amide]

IC50 [1, 7]: 100 to 1000 nM | IC50 [2, 8]: 100 to 1000 nM
Compound: CNC(=O)c1ccsc1Nc1nc(Nc2ccc3c(c2)CCN(CCOC)CC3)ncc1Cl [Example 1484, 2-{5-Chloro-2-[3-(2-methoxy-ethyl)-2,3,4,5-tetrahydro-1H-benzo[d]azepin-7-ylamino]-pyrimidin-4-ylamino}-thiophene-3-carboxylic acid methylamide]
